From patent US11566017B2, “Dihydroquinazolinone compound or pharmacologically acceptable salt, and cell growth inhibitor” (RIKEN, priority 2017, dated 2023)

What was measured:
[1] = target: T1, tankyrase 2 (TNKS2) (Homo sapiens, UniProt Q9H2K2); test: Tankyrase inhibitory activity test (ELISA, auto-poly(ADP-ribosyl)ation), tankyrase 2; assay type: biochemical; details: Flag tagged tankyrase 2 (613-1,116aa, ANK5+SAM+PARP); read-out: TNKS2 (inhibitory activity against tankyrase 2, IC50)
T1 construct: tankyrase 2 (613-1,116aa, ANK5+SAM+PARP); made in house; host or cells: cell-free protein expression system
Procedure: (§1) The enzymatic activity of tankyrase 1 and the enzymatic activity of tankyrase 2 were measured by the ELISA method based on assessment of auto-poly(ADP-ribosyl)ation to evaluate the tankyrase inhibitory activity of the compound prepared in each of Examples (test compound) (inhibitory activity against tankyrase 1 (TNKS1) and inhibitory activity against tankyrase 2 (TNKS2)). First, Flag tagged tankyrase 1 (1,024-1,327aa, SAM+PARP) and tankyrase 2 (613-1,116aa, ANK5+SAM+PARP) were synthesized with a cell-free protein expression system, and diluted with a Tris buffer solution (50 mM Tris-HCl (pH 8.0), 150 mM NaCl, 10% glycerol). 50 μL of the diluted tankyrase 1 or tankyrase 2 was added to a plate with an anti-FLAG M2 monoclonal antibody immobilized thereon (Anti-FLAG High-Sensitivity M2-Coated Plate) (Sigma-Aldrich), and the plate was left standing overnight at 4° C. Thereafter, the plate was washed four times with a PBS (PBST) buffer containing 0.1% Triton X-100. For Example 84, the Anti-FLAG High-Sensitivity M2-Coated Plate was replaced by an immunoplate (Thermo Fisher Scientific), tankyrase 1 or tankyrase 2 was immobilized on the immunoplate, and the immunoplate was then blocked with Blocking One (nacalai tesque), then washed with a PBS (PBST) buffer, and used as the following plate.
(§2) Subsequently, the test compound diluted with an assay buffer (50 mM Tris-HCl (pH 8.0), 4 mM MgCl2, 0.2 mM DTT) (DMSO was used as a control) was added to each well of the plate, and the plate was left standing at room temperature for 10 minutes. Thereafter, a biotin-labeled NAD solution (225 μM NAD, 25 μM 6-Biotin-17-NAD (Travigen, Inc.)) was added and mixed as a donor substrate, and the mixture was reacted at 30° C. for 45 minutes. To blank wells was added distilled water instead of the biotin-labeled NAD solution. After the reaction, the plate was washed with a PBST buffer four times. Thereafter, HRP (horseradish peroxidase)-labeled streptavidin (Travigen, Inc.) was diluted with a PBS buffer by 1,000 times, and added to each well, and the mixture was reacted at room temperature for 20 minutes. The plate was washed with a PBST buffer four times, a chemiluminescent substrate solution TACS-Sapphire (Travigen, Inc.) was then added to each well, the mixture was reacted at room temperature for 20 minutes, and the chemiluminescence intensity was measured using a chemiluminescence measuring apparatus. For Example 84, the streptavidin was diluted by 5,000 times, the chemiluminescent substrate solution TACS-Sapphire was replaced by an ELISA POD substrate TMB solution easy (nacalai tesque), the mixture was reacted at room temperature for 30 minutes, and the chemiluminescence intensity was measured using a chemiluminescence measuring apparatus.
(§3) The residual enzymatic activity in the presence of the test compound was determined from the following expression. On the basis of the residual enzymatic activity at each of multiple concentrations of the test compound, the enzyme inhibitory activity was calculated in terms of a 50%-inhibition concentration (IC50 value) using data analysis software Origin (LightStone Corp.). Residual activity (%)={(chemiluminescence intensity with test compound added)−(chemiluminescence intensity of blank)}/{(chemiluminescence intensity of control)−(chemiluminescence intensity of blank)}

[2] = test system: human colorectal cancer cell line COLO-320DM; test: Cell proliferation inhibitory activity test (Celltiter-Glo); assay type: cell-based; details: COLO-320DM cells, 96 hours
Procedure: The cell proliferation inhibitory activity of the compound, which had been prepared in each of Examples, against the human colorectal cancer cell line COLO-320DM was evaluated by Celltiter-Glo Luminescent Cell Viability Assay (Promega Corporation; G7573). COLO-320DM cells were cultured in RPMI-1640 medium containing 2 mM glutamine (Wako Pure Chemical Industries, Ltd; 189-02025) supplemented with 10% fetal bovine serum. The cultured cells were washed with PBS, and then dissociated with trypsin/EDTA, and a cell solution with 3×10^4 cells/mL was prepared.
Subsequently, the cell solution was seeded in a 96-well microplate (Thermo/Nunc Company; 136101) in an amount of 70 μL per well, and cultured overnight under the condition of 37° C. and 5% CO2. Next day, a test compound solution obtained by diluting the test compound (DMSO solution) with a cell culture medium (final concentration of DMSO was 1%) was added in an amount of 10 μL per well, and the mixture was reacted under the condition of 37° C. and 5% CO2 for 96 hours (a 1% DMSO solution was used as a control). Thereafter, a Celltiter-GloLuminescent Cell Viability Assay reagent (Promega Corporation; G7573) was added in an amount of 80 μL per well, the mixture was stirred with a shaker for 2 minutes while light was blocked with an aluminum foil, and the mixture was incubated at room temperature for 10 minutes.
Thereafter, a luminescence signal was measured with a luminometer (Biotech Company; Synergy). The ratio of cell proliferation in each compound addition group to cell proliferation in a control group containing no test compound solution, where cell proliferation in the control group is 100%, was calculated and the value of a compound concentration necessary for suppressing the amount of residual cells to 50% of that in the control (GI50) was calculated as the cytostatic activity. […] An unevaluated test compound was designated as “NT”.

[3] = target: T2, tankyrase 1 (TNKS1) (Homo sapiens, UniProt O95271); test: Tankyrase inhibitory activity test (ELISA, auto-poly(ADP-ribosyl)ation), tankyrase 1; assay type: biochemical; details: Flag tagged tankyrase 1 (1,024-1,327aa, SAM+PARP); read-out: TNKS1 (inhibitory activity against tankyrase 1, IC50)
T2 construct: tankyrase 1 (1,024-1,327aa, SAM+PARP); made in house; host or cells: cell-free protein expression system
Procedure: as §1, §2, §3

T2 sequence (O95271 1024-1327): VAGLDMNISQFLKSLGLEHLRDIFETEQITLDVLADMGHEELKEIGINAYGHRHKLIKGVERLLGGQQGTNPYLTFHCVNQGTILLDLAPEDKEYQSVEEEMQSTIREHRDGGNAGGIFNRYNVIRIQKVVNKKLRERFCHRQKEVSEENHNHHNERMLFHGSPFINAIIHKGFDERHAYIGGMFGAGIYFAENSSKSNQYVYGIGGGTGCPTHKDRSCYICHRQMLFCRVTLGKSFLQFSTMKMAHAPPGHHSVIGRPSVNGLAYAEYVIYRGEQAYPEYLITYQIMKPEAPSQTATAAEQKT

IC50 [1]	GI50 [2]	IC50 [3]	Compound
5 to 20 nM	1000 to 10000 nM	5 to 20 nM	Cc1cccc2c1NC(c1n[nH]nc1-c1ccc(OCC(F)(F)F)cc1)NC2=O (stereo not drawn) [Example 72, 8-Methyl-2-[4-[4-(2,2,2-trifluoroethoxy)phenyl]-2H-1,2,3-triazol-5-yl]-2,3-dihydro-1H-quinazolin-4-one]
< 5 nM	1000 to 10000 nM	< 5 nM	COc1ccc(-c2c[nH]nc2C2NC(=O)c3ccccc3N2C)cc1 (stereo not drawn) [Example 86, 2-[4-(4-Methoxyphenyl)-1H-pyrazol-3-yl]-1-methyl-2,3-dihydro-1H-quinazolin-4-one]
5 to 20 nM	1000 to 10000 nM	20 to 50 nM	Cc1cccc2c1NC(c1n[nH]nc1-c1ccc(OC(C)C)cc1)NC2=O (stereo not drawn) [Example 76, 8-Methyl-2-[5-(4-propan-2-yloxyphenyl)-2H-1,2,3-triazol-4-yl]-2,3-dihydro-1H-quinazolin-4-one]
20 to 50 nM	1000 to 10000 nM	20 to 50 nM	CN1CCN(c2cccc(-c3ccc(-c4[nH]ncc4C4NC(=O)c5ccccc5N4C)cc3)c2)CC1 (stereo not drawn) [Example 38, 1-Methyl-2-[5-[4-[3-(4-methylpiperazin-1-yl)phenyl]phenyl]-1H-pyrazol-4-yl]-2,3-dihydroquinazolin-4-one]
< 5 nM	1000 to 10000 nM	< 5 nM	COc1ccc(-c2c[nH]nc2C2NC(=O)c3cccc(C)c3N2)cc1 (stereo not drawn) [Example 87, 2-[4-(4-Methoxyphenyl)-1H-pyrazol-3-yl]-8-methyl-2,3-dihydro-1H-quinazolin-4-one]
20 to 50 nM	≥ 10000 nM	20 to 50 nM	CCOC(=O)Cc1ccc(-c2ccc(-c3[nH]ncc3C3NC(=O)c4ccccc4N3C)cc2)cc1 (stereo not drawn) [Example 36, Ethyl 2-[4-[4-[4-(1-methyl-4-oxo-2,3-dihydroquinazolin-2-yl)-1H-pyrazol-5-yl]phenyl]phenyl]acetate]
5 to 20 nM	1000 to 10000 nM	5 to 20 nM	COc1ccc(-c2n[nH]nc2C2NC(=O)c3cccc4c3N2CCO4)cc1 (stereo not drawn) [Example 68, 2-[5-(4-Methoxyphenyl)-2H-1,2,3-triazol-4-yl]-10-oxa-1,3-diazatricyclo[7.3.1.0^5,13]trideca-5,7,9(13)-trien-4-one]
20 to 50 nM	≥ 10000 nM	20 to 50 nM	CCN1c2ccccc2C(=O)NC1c1c[nH]nc1-c1ccc(C(=O)OC)cc1 (stereo not drawn) [Example 13, Methyl 4-[4-(1-ethyl-4-oxo-2,3-dihydroquinazolin-2-yl)-1H-pyrazol-3-yl]benzoate]
5 to 20 nM	1000 to 10000 nM	20 to 50 nM	CN1CCN(c2ccc(-c3ccc(-c4n[nH]cc4C4NC(=O)c5ccccc5N4C)cc3)cc2)CC1 (stereo not drawn) [Example 6, 1-Methyl-2-[5-[4-[4-(4-methylpiperazin-1-yl)phenyl]phenyl]-1H-pirazol-4-yl]-2,3-dihydroquinazolin-4-one]
20 to 50 nM	≥ 10000 nM	20 to 50 nM	CN1CCN(Cc2cccc(-c3cccc(-c4n[nH]cc4C4NC(=O)c5ccccc5N4C)c3)c2)CC1 (stereo not drawn) [Example 33]
< 5 nM	≥ 10000 nM	5 to 20 nM	CN1c2ccccc2C(=O)NC1c1c[nH]nc1-c1ccc(OCc2ccccc2)cc1 (stereo not drawn) [Example 11, 1-Methyl-2-[3-(4-phenylmethoxyphenyl)-1H-pyrazol-4-yl]-2,3-dihydroquinazolin-4-one]

The next lines start with the compound.

Compound	IC50 [1]	GI50 [2]	IC50 [3]
Cc1cccc2c1NC(c1n[nH]nc1-c1ccc(Br)cc1)NC2=O (stereo not drawn) [Example 66, 2-[4-(4-Bromophenyl)-2H-1,2,3-triazol-5-yl]-8-methyl-2,3-dihydro-1H-quinazolin-4-one]	< 5 nM	≥ 10000 nM	5 to 20 nM
CN1c2ccccc2C(=O)NC1c1n[nH]nc1-c1cccc(-c2ccc(N3CCOCC3)cc2)c1 (stereo not drawn) [Example 62, 1-Methyl-2-[4-[3-(4-morpholin-4-ylphenyl)phenyl]-2H-1,2,3-triazol-5-yl]-2,3-dihydroquinazolin-4-one]	5 to 20 nM	≥ 10000 nM	5 to 20 nM
CN1c2ccccc2C(=O)NC1c1c[nH]nc1-c1ccc(I)cc1 (stereo not drawn) [Example 19, 2-[3-(4-Iodophenyl)-1H-pyrazol-4-yl]-1-methyl-2,3-dihydroquinazolin-4-one]	< 5 nM	≥ 10000 nM	5 to 20 nM
CN(C)c1ccc(-c2ccc(-c3n[nH]cc3C3NC(=O)c4ccccc4N3C)cc2)cc1 (stereo not drawn) [Example 34, 2-[5-[4-[4-(Dimethylamino)phenyl]phenyl]-1H-pyrazol-4-yl]-1-methyl-2,3-dihydroquinazolin-4-one]	20 to 50 nM	1000 to 10000 nM	20 to 50 nM
COc1ccc(-c2n[nH]cc2C2NC(=O)c3ccccc3N2CC2CC2)cc1 (stereo not drawn) [Example 14, 1-(Cyclopropylmethyl)-2-[5-(4-methoxyphenyl)-1H-pyrazol-4-yl]-2,3-dihydroquinazolin-4-one]	20 to 50 nM	≥ 10000 nM	20 to 50 nM
CN1c2ccccc2C(=O)NC1c1c[nH]nc1-c1cccc(F)c1 (stereo not drawn) [Example 28, 2-[3-(3-Fluorophenyl)-1H-pyrazol-4-yl]-1-methyl-2,3-dihydroquinazolin-4-one]	5 to 20 nM	1000 to 10000 nM	< 5 nM
CN1CCN(c2ccc(-c3cccc(-c4n[nH]cc4C4NC(=O)c5ccccc5N4C)c3)cc2)CC1 (stereo not drawn) [Example 23, 1-Methyl-2-[5-[3-[4-(4-methylpiperazin-1-yl)phenyl]phenyl]-1H-pyrazol-4-yl]-2,3-dihydroquinazolin-4-one]	20 to 50 nM	1000 to 10000 nM	20 to 50 nM
CCN1c2ccccc2C(=O)NC1c1c[nH]nc1-c1ccc(OC)cc1 (stereo not drawn) [Example 12, 1-Ethyl-2-[3-(4-methoxyphenyl)-1H-pyrazol-4-yl]-2,3-dihydroquinazolin-4-one]	5 to 20 nM	1000 to 10000 nM	20 to 50 nM
CN1c2ccccc2C(=O)NC1c1c[nH]nc1-c1cc(F)cc(F)c1 (stereo not drawn) [Example 47, 2-[3-(3,5-Difluorophenyl)-1H-pyrazol-4-yl]-1-methyl-2,3-dihydroquinazolin-4-one]	5 to 20 nM	≥ 10000 nM	20 to 50 nM
CN1CCN(c2ccc(-c3cccc(-c4n[nH]nc4C4NC(=O)c5ccccc5N4C)c3)cc2)CC1 (stereo not drawn) [Example 61, 1-Methyl-2-[5-[3-[4-(4-methylpiperazin-1-yl)phenyl]phenyl]-2H-1,2,3-triazol-4-yl]-2,3-dihydroquinazolin-4-one]	5 to 20 nM	≥ 10000 nM	5 to 20 nM
